The values below are quoted from earlier work in patent publication US20040213859A1, “Organic nutrient for hair loss treatment” (priority 1999, published 2004).

Data set [1] concerns the target T1, type II 5-alpha-reductase (Homo sapiens, UniProt P31213).
T1 construct: host or cells: scalp (in vivo, treated individuals)
T1 sequence (P31213 1-254): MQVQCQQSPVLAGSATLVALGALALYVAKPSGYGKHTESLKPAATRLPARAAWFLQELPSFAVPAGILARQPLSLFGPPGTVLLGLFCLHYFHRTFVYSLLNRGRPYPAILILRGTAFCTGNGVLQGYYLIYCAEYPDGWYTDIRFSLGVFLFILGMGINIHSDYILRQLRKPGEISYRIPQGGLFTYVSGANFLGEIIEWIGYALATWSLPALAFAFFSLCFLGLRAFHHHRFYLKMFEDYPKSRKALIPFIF
The following applies: by inhibiting conversion of testosterone to DHT.

Another data set concerns adrogenetic alopecia. The following applies: oral administration.

As for `CC(C)(C)NC(=O)[C@H]1CC[C@H]2[C@@H]3CC[C@H]4NC(=O)C=C[C@]4(C)[C@H]3CC[C@]12C` [Finisteride], the “scalp DHT (dihydrotestosterone)” value in data set [1] is on record as “effective in decreasing scalp DHT”. Further, the “hair loss, hair growth and appearance of hair” value in the data set on adrogenetic alopecia was “slowed hair loss, increased hair growth and improved the appearance of hair”.
